Assay results published in patent US10004701B2, “Methods and compositions for treating infection” (UNIVERSITY OF ROCHESTER, priority 2012, dated 2018).
Counter-ions that a name gives are not always drawn. Like-named read-outs stand apart in the source and are kept apart here.

Experiments:
Experiment in all cases: AK assay 384-well format, Prestwick library screening
[1] = system: S. aureus strain USA300-0114; assay type: cell-based, Staphylococcus aureus; conditions: Staphylococcus aureus, USA300, 3 h, 50 μM final drug concentration
P. aeruginosa = assay type: cell-based, Pseudomonas aeruginosa; conditions: Pseudomonas aeruginosa, 3 h, 50 μM final drug concentration
K. pneumoniae = assay type: cell-based, Klebsiella pneumoniae; conditions: Klebsiella pneumoniae, 3 h, 50 μM final drug concentration
E. coli = assay type: cell-based, Escherichia coli; conditions: Escherichia coli, 3 h, 50 μM final drug concentration
E. cloacae = assay type: cell-based, Enterobacter cloacae; conditions: Enterobacter cloacae, 3 h, 50 μM final drug concentration
[2] = system: A. baumannii strain 98-37-09; assay type: cell-based, Acinetobacter baumannii; conditions: Acinetobacter baumannii, 983709, 3 h, 50 μM final drug concentration
E. faecium = assay type: cell-based, Enterococcus faecium; conditions: Enterococcus faecium, 3 h, 50 μM final drug concentration
[3] = planktonic S. aureus, 384-well, cutoff for positive-scoring molecules 3-fold increase, read-out: AK-based Prestwick Library Screening Results: S. aureus (increase in extracellular AK activity)
[4] = planktonic P. aeruginosa, 384-well, cutoff for positive-scoring molecules 3-fold increase, read-out: AK-based Prestwick Library Screening Results: P. aeruginosa (increase in extracellular AK activity)
[5] = planktonic K. pneumoniae, 384-well, cutoff for positive-scoring molecules 3-fold increase, read-out: AK-based Prestwick Library Screening Results: K. pneumoniae (increase in extracellular AK activity)
[6] = planktonic E. coli, 384-well, cutoff for positive-scoring molecules 3-fold increase, read-out: AK-based Prestwick Library Screening Results: E. coli (increase in extracellular AK activity)
[7] = planktonic E. cloacae, 384-well, cutoff for positive-scoring molecules 3-fold increase, read-out: AK-based Prestwick Library Screening Results: E. cloacae (increase in extracellular AK activity)
[8] = planktonic A. baumannii, 384-well, cutoff for positive-scoring molecules 3-fold increase, read-out: AK-based Prestwick Library Screening Results: A. baumannii (increase in extracellular AK activity)
[9] = planktonic E. faecium, 384-well, cutoff for positive-scoring molecules 3-fold increase, read-out: AK-based Prestwick Library Screening Results: E. faecium (increase in extracellular AK activity)
[10] = cutoff for positive-scoring molecules 3-fold increase, read-out: AK-based Prestwick Library Screening Results, S. aureus (fold increase in extracellular AK activity)
[11] = cutoff for positive-scoring molecules 3-fold increase, read-out: AK-based Prestwick Library Screening Results, P. aeruginosa (fold increase in extracellular AK activity)
[12] = cutoff for positive-scoring molecules 3-fold increase, read-out: AK-based Prestwick Library Screening Results, K. pneumoniae (fold increase in extracellular AK activity)
[13] = cutoff for positive-scoring molecules 3-fold increase, read-out: AK-based Prestwick Library Screening Results, E. coli (fold increase in extracellular AK activity)
[14] = cutoff for positive-scoring molecules 3-fold increase, read-out: AK-based Prestwick Library Screening Results, E. cloacae (fold increase in extracellular AK activity)
[15] = cutoff for positive-scoring molecules 3-fold increase, read-out: AK-based Prestwick Library Screening Results, A. baumannii (fold increase in extracellular AK activity)
[16] = cutoff for positive-scoring molecules 3-fold increase, read-out: AK-based Prestwick Library Screening Results, E. faecium (fold increase in extracellular AK activity)
[17] = planktonic S. aureus, positive cutoff 3-fold increase, read-out: AK-based Prestwick library screening result, S. aureus (fold increase in extracellular AK activity)
[18] = planktonic P. aeruginosa, positive cutoff 3-fold increase, read-out: AK-based Prestwick library screening result, P. aeruginosa (fold increase in extracellular AK activity)
[19] = planktonic K. pneumoniae, positive cutoff 3-fold increase, read-out: AK-based Prestwick library screening result, K. pneumoniae (fold increase in extracellular AK activity)
[20] = planktonic E. coli, positive cutoff 3-fold increase, read-out: AK-based Prestwick library screening result, E. coli (fold increase in extracellular AK activity)
[21] = planktonic E. cloacae, positive cutoff 3-fold increase, read-out: AK-based Prestwick library screening result, E. cloacae (fold increase in extracellular AK activity)
[22] = planktonic A. baumannii, positive cutoff 3-fold increase, read-out: AK-based Prestwick library screening result, A. baumannii (fold increase in extracellular AK activity)
[23] = planktonic E. faecium, positive cutoff 3-fold increase, read-out: AK-based Prestwick library screening result, E. faecium (fold increase in extracellular AK activity)

CCN(CC)CCCC(C)Nc1c2ccc(Cl)cc2nc2ccc(OC)cc12 (stereo not drawn) [Quinacrine dihydrochloride dihydrate]
fold induction at 50 µM [1, 3]: 1.2 | fold induction at 50 µM (P. aeruginosa; [4]): 0.9 | fold induction at 50 µM (K. pneumoniae; [5]): 1 | fold induction at 50 µM (E. coli; [6]): 1.2 | fold induction at 50 µM (E. cloacae; [7]): 1.4 | fold induction at 50 µM [2, 8]: 1.3 | fold induction at 50 µM (E. faecium; [9]): 1

CCOC(=O)[C@H](CCc1ccccc1)N[C@@H](C)C(=O)N1Cc2ccccc2C[C@H]1C(=O)O [Quinapril HCl]
fold induction at 50 µM [1, 10]: 1.2 | fold induction at 50 µM (P. aeruginosa; [11]): 1.2 | fold induction at 50 µM (K. pneumoniae; [12]): 1 | fold induction at 50 µM (E. coli; [13]): 1.2 | fold induction at 50 µM (E. cloacae; [14]): 1.6 | fold induction at 50 µM [2, 15]: 1.2 | fold induction at 50 µM (E. faecium; [16]): 1.1

CCC1NC(=O)c2cc(S(N)(=O)=O)c(Cl)cc2N1 (stereo not drawn) [Quinethazone]
fold induction at 50 µM [1, 10]: 0.4 | fold induction at 50 µM (P. aeruginosa; [11]): 0.5 | fold induction at 50 µM (K. pneumoniae; [12]): 0.6 | fold induction at 50 µM (E. coli; [13]): 0.6 | fold induction at 50 µM (E. cloacae; [14]): 0.4 | fold induction at 50 µM [2, 15]: 0.5 | fold induction at 50 µM (E. faecium; [16]): 0.9

O=C(O)[C@]1(O)C[C@@H](O)[C@@H](O)[C@H](O)C1 [Quinic acid]
fold induction at 50 µM [1, 17]: 1.2 | fold induction at 50 µM (P. aeruginosa; [18]): 1.1 | fold induction at 50 µM (K. pneumoniae; [19]): 1.3 | fold induction at 50 µM (E. coli; [20]): 1.2 | fold induction at 50 µM (E. cloacae; [21]): 1.2 | fold induction at 50 µM [2, 22]: 1.4 | fold induction at 50 µM (E. faecium; [23]): 1

CC(=O)SCC(Cc1ccccc1)C(=O)NCC(=O)OCc1ccccc1 (stereo not drawn) [Racecadotril]
fold induction at 50 µM ([1]; planktonic, cutoff for positive 3-fold increase, read-out: AK-based Prestwick Library Screening Results, S. aureus (fold increase in extracellular AK activity)): 1.9 | fold induction at 50 µM (P. aeruginosa; planktonic, cutoff for positive 3-fold increase, read-out: AK-based Prestwick Library Screening Results, P. aeruginosa (fold increase in extracellular AK activity)): 1.2 | fold induction at 50 µM (K. pneumoniae; planktonic, cutoff for positive 3-fold increase, read-out: AK-based Prestwick Library Screening Results, K. pneumoniae (fold increase in extracellular AK activity)): 1.1 | fold induction at 50 µM (E. coli; planktonic, cutoff for positive 3-fold increase, read-out: AK-based Prestwick Library Screening Results, E. coli (fold increase in extracellular AK activity)): 1.2 | fold induction at 50 µM (E. cloacae; planktonic, cutoff for positive 3-fold increase, read-out: AK-based Prestwick Library Screening Results, E. cloacae (fold increase in extracellular AK activity)): 1.5 | fold induction at 50 µM ([2]; planktonic, cutoff for positive 3-fold increase, read-out: AK-based Prestwick Library Screening Results, A. baumannii (fold increase in extracellular AK activity)): 1.3 | fold induction at 50 µM (E. faecium; planktonic, cutoff for positive 3-fold increase, read-out: AK-based Prestwick Library Screening Results, E. faecium (fold increase in extracellular AK activity)): 1

O=C(c1ccc(OCCN2CCCCC2)cc1)c1c(-c2ccc(O)cc2)sc2cc(O)ccc12 [Raloxifene hydrochloride]
fold induction at 50 µM [1, 10]: 1.2 | fold induction at 50 µM (P. aeruginosa; [11]): 1.2 | fold induction at 50 µM (K. pneumoniae; [12]): 1.1 | fold induction at 50 µM (E. coli; […], read-out: AK-based Prestwick Library Screening Results, E. coli (fold increase in extracellular AK activity)): 1.5 | fold induction at 50 µM (E. cloacae; [14]): 1.3 | fold induction at 50 µM [2, 15]: 1.5 | fold induction at 50 µM (E. faecium; [16]): 0.9

CCOC(=O)[C@H](CCc1ccccc1)N[C@@H](C)C(=O)N1[C@H](C(=O)O)C[C@@H]2CCC[C@@H]21 [Ramipril]
fold induction at 50 µM [1, 17]: 1.2 | fold induction at 50 µM (P. aeruginosa; [18]): 1.2 | fold induction at 50 µM (K. pneumoniae; [19]): 1 | fold induction at 50 µM (E. coli; [20]): 1.1 | fold induction at 50 µM (E. cloacae; [21]): 1.1 | fold induction at 50 µM [2, 22]: 1.3 | fold induction at 50 µM (E. faecium; [23]): 1

CNC(=C[N+](=O)[O-])NCCSCc1ccc(CN(C)C)o1 [Ranitidine hydrochloride]
fold induction at 50 µM [1, 3]: 1.2 | fold induction at 50 µM (P. aeruginosa; [4]): 1.3 | fold induction at 50 µM (K. pneumoniae; [5]): 0.9 | fold induction at 50 µM (E. coli; [6]): 1.4 | fold induction at 50 µM (E. cloacae; [7]): 1.5 | fold induction at 50 µM [2, 8]: 1.1 | fold induction at 50 µM (E. faecium; [9]): 1.1

COc1ccccc1OCC(O)CN1CCN(CC(=O)Nc2c(C)cccc2C)CC1 (stereo not drawn) [Ranolazine]
fold induction at 50 µM [1, 17]: 1 | fold induction at 50 µM (P. aeruginosa; [18]): 1 | fold induction at 50 µM (K. pneumoniae; [19]): 0.9 | fold induction at 50 µM (E. coli; [20]): 1.2 | fold induction at 50 µM (E. cloacae; [21]): 1.4 | fold induction at 50 µM [2, 22]: 1.2 | fold induction at 50 µM (E. faecium; [23]): 0.9

COC(=O)[C@H]1[C@H]2C[C@H]3c4[nH]c5ccccc5c4CCN3C[C@H]2CC[C@@H]1O [Rauwolscine hydrochloride]
fold induction at 50 µM ([1]; planktonic S. aureus, cutoff for positive-scoring molecules 3-fold increase, read-out: AK-based Prestwick Library Screening Results, S. aureus (increase in extracellular AK activity)): 0.7 | fold induction at 50 µM (P. aeruginosa; planktonic P. aeruginosa, cutoff for positive-scoring molecules 3-fold increase, read-out: AK-based Prestwick Library Screening Results, P. aeruginosa (increase in extracellular AK activity)): 0.6 | fold induction at 50 µM (K. pneumoniae; planktonic K. pneumoniae, cutoff for positive-scoring molecules 3-fold increase, read-out: AK-based Prestwick Library Screening Results, K. pneumoniae (increase in extracellular AK activity)): 0.6 | fold induction at 50 µM (E. coli; planktonic E. coli, cutoff for positive-scoring molecules 3-fold increase, read-out: AK-based Prestwick Library Screening Results, E. coli (increase in extracellular AK activity)): 0.7 | fold induction at 50 µM (E. cloacae; planktonic E. cloacae, cutoff for positive-scoring molecules 3-fold increase, read-out: AK-based Prestwick Library Screening Results, E. cloacae (increase in extracellular AK activity)): 0.8 | fold induction at 50 µM ([2]; planktonic A. baumannii, cutoff for positive-scoring molecules 3-fold increase, read-out: AK-based Prestwick Library Screening Results, A. baumannii (increase in extracellular AK activity)): 0.8 | fold induction at 50 µM (E. faecium; planktonic E. faecium, cutoff for positive-scoring molecules 3-fold increase, read-out: AK-based Prestwick Library Screening Results, E. faecium (increase in extracellular AK activity)): 1

CCN1CCC[C@H]1CNC(=O)c1c(OC)ccc(Br)c1OC [Remoxipride Hydrochloride]
fold induction at 50 µM [1, 10]: 0.6 | fold induction at 50 µM (P. aeruginosa; [11]): 0.7 | fold induction at 50 µM (K. pneumoniae; [12]): 0.6 | fold induction at 50 µM (E. coli; [13]): 0.7 | fold induction at 50 µM (E. cloacae; [14]): 0.8 | fold induction at 50 µM [2, 15]: 0.7 | fold induction at 50 µM (E. faecium; [16]): 0.9

CCOc1cc(CC(=O)N[C@@H](CC(C)C)c2ccccc2N2CCCCC2)ccc1C(=O)O [Repaglinide]
fold induction at 50 µM [1, 10]: 0.3 | fold induction at 50 µM (P. aeruginosa; [11]): 0.4 | fold induction at 50 µM (K. pneumoniae; [12]): 0.4 | fold induction at 50 µM (E. coli; [13]): 0.4 | fold induction at 50 µM (E. cloacae; [14]): 0.4 | fold induction at 50 µM [2, 15]: 0.4 | fold induction at 50 µM (E. faecium; [16]): 0.9
